Source: patent US20020090341A1, “Method” (NYCOMED IMAGING AS, priority 1997, published 2002)
Like-named read-outs stand apart in the source and are kept apart here.

Tests used:
[1] = test system: normal and reperfused infarcted myocardium; experiment: inversion recovery echo planar imaging T1 measurement after coronary occlusion 60 min and reperfusion 120 min
Protocol: (§1) Sprague-Dawley rats (female, 270-320 g, n=24) were subjected to occlusion of the anterior branch of the left main coronary artery for 60 minutes, followed by reperfusion for 120 minutes before injecting the test agent. A catheter was placed in the tail vein for administration of contrast media. Animals were connected to an ECG patient monitor and placed in the magnet such that the heart of each rat was at or near ioscenter. Magnetic field was optimized for a central slab of 6 mm thickness, within which the 2 mm section to be imaged was located. Inversion and slice select pulses were calibrated. Inversion recovery echo planar imaging was then used to measure baseline T1 values for myocardium and left ventricle chamber blood.
(§2) MnDPDP was then administered at doses of 25, 50 and 100 μmole/kg by intravenous injection of 2.5, 5 and 10 ml/kg, respectively, of the test solution which contained a 10 mM solution of MnDPDP. These injections were followed by a flush of physiologic saline solution (0.9%) such that the combined volumes of test agent and saline flush was 11 ml/kg. All injected solutions were warmed before being administered and were injected slowly over 1.5 mins. T1 values were remeasured at 5 minute intervals during the first 60 minutes after injection. Occasional animals were imaged at 90 minutes for T1 determination (EPI) and for visual inspection of contrast on STIR (short TI inversion recovery) prepared spin echo images.
After imaging was completed, animals were sacrificed by an overdose of pentobarbital and the heart was excised, sectioned and stained in triphenyltetrazolium chloride solution to define the infarcted region.

[2] = test system: normal and reperfused infarcted myocardium; details: 90 minutes post injection
Protocol: as §1, §2

[3] = 25 μmol/kg, 5 min after injection
[4] = 25 μmol/kg, 10 min after injection
[5] = 25 μmol/kg, 15 min after injection
[6] = 25 μmol/kg, 20 min after injection
[7] = 25 μmol/kg, 25 min after injection
[8] = 25 μmol/kg, 30 min after injection
[9] = 25 μmol/kg, 35 min after injection
[10] = 25 μmol/kg, 40 min after injection
[11] = 25 μmol/kg, 45 min after injection
[12] = 25 μmol/kg, 50 min after injection
[13] = 25 μmol/kg, 55 min after injection
[14] = 25 μmol/kg, 60 min after injection
[15] = 50 μmol/kg, 5 min after injection
[16] = 50 μmol/kg, 10 min after injection
[17] = 50 μmol/kg, 15 min after injection
[18] = 50 μmol/kg, 20 min after injection
[19] = 50 μmol/kg, 25 min after injection
[20] = 50 μmol/kg, 30 min after injection
[21] = 50 μmol/kg, 35 min after injection
[22] = 50 μmol/kg, 40 min after injection
[23] = 50 μmol/kg, 45 min after injection
[24] = 50 μmol/kg, 50 min after injection
[25] = 50 μmol/kg, 55 min after injection
[26] = 50 μmol/kg, 60 min after injection
[27] = 100 μmol/kg, 5 min after injection
[28] = 100 μmol/kg, 10 min after injection
[29] = 100 μmol/kg, 15 min after injection
[30] = 100 μmol/kg, 20 min after injection
[31] = 100 μmol/kg, 25 min after injection
[32] = 100 μmol/kg, 30 min after injection
[33] = 100 μmol/kg, 35 min after injection
[34] = 100 μmol/kg, 40 min after injection
[35] = 100 μmol/kg, 45 min after injection
[36] = 100 μmol/kg, 50 min after injection
[37] = 100 μmol/kg, 55 min after injection
[38] = 100 μmol/kg, 60 min after injection

Cc1ncc(COP(=O)(O)O)c(CN(CCN(CC(=O)[O-])Cc2c(COP(=O)(O)O)cnc(C)c2O)CC(=O)[O-])c1O.[Mn+2] [MnDPDP, manganese (II) chelate of N,N′-bis-(pyridoxal-5-phosphate)-ethylenediamine-N,N′-diacetic acid]
T1 Blood [1, 3]: 1.04 ± 0.02 s | T1 Infarct [1, 3]: 0.76 ± 0.02 s | T1 normal [1, 3]: 0.77 ± 0.01 s | T1 Blood [1, 4]: 1.11 ± 0.02 s | T1 Infarct [1, 4]: 0.82 ± 0.02 s | T1 normal [1, 4]: 0.76 ± 0.01 s | T1 Blood [1, 5]: 1.14 ± 0.02 s | T1 Infarct [1, 5]: 0.86 ± 0.03 s | T1 normal [1, 5]: 0.75 ± 0.01 s | T1 Blood [1, 6]: 1.16 ± 0.02 s | T1 Infarct [1, 6]: 0.90 ± 0.03 s | T1 normal [1, 6]: 0.73 ± 0.01 s | T1 Blood [1, 7]: 1.18 ± 0.02 s | T1 Infarct [1, 7]: 0.92 ± 0.03 s | T1 normal [1, 7]: 0.72 ± 0.01 s | T1 Blood [1, 8]: 1.18 ± 0.02 s | T1 Infarct [1, 8]: 0.93 ± 0.03 s | T1 normal [1, 8]: 0.70 ± 0.01 s | T1 Blood [1, 9]: 1.19 ± 0.02 s | T1 Infarct [1, 9]: 0.95 ± 0.03 s | T1 normal [1, 9]: 0.70 ± 0.01 s | T1 Blood [1, 10]: 1.20 ± 0.02 s | T1 Infarct [1, 10]: 0.98 ± 0.03 s | T1 normal [1, 10]: 0.69 ± 0.01 s | T1 Blood [1, 11]: 1.21 ± 0.02 s | T1 Infarct [1, 11]: 0.99 ± 0.03 s | T1 normal [1, 11]: 0.68 ± 0.01 s | T1 Blood [1, 12]: 1.22 ± 0.02 s | T1 Infarct [1, 12]: 1.00 ± 0.03 s | T1 normal [1, 12]: 0.67 ± 0.01 s | T1 Blood [1, 13]: 1.22 ± 0.02 s | T1 Infarct [1, 13]: 1.01 ± 0.03 s | T1 normal [1, 13]: 0.67 ± 0.01 s | T1 Blood [1, 14]: 1.23 ± 0.02 s | T1 Infarct [1, 14]: 1.02 ± 0.03 s | T1 normal [1, 14]: 0.65 ± 0.01 s | T1 Blood [1, 15]: 0.84 ± 0.02 s | T1 Infarct [1, 15]: 0.59 ± 0.01 s | T1 normal [1, 15]: 0.69 ± 0.01 s | T1 Blood [1, 16]: 0.93 ± 0.03 s | T1 Infarct [1, 16]: 0.65 ± 0.01 s | T1 normal [1, 16]: 0.68 ± 0.01 s | T1 Blood [1, 17]: 0.97 ± 0.02 s | T1 Infarct [1, 17]: 0.69 ± 0.01 s | T1 normal [1, 17]: 0.67 ± 0.01 s | T1 Blood [1, 18]: 1.00 ± 0.02 s | T1 Infarct [1, 18]: 0.73 ± 0.01 s | T1 normal [1, 18]: 0.67 ± 0.01 s | T1 Blood [1, 19]: 1.02 ± 0.03 s | T1 Infarct [1, 19]: 0.76 ± 0.02 s | T1 normal [1, 19]: 0.64 ± 0.01 s | T1 Blood [1, 20]: 1.04 ± 0.03 s | T1 Infarct [1, 20]: 0.80 ± 0.01 s | T1 normal [1, 20]: 0.63 ± 0.01 s | T1 Blood [1, 21]: 1.05 ± 0.03 s | T1 Infarct [1, 21]: 0.82 ± 0.02 s | T1 normal [1, 21]: 0.62 ± 0.01 s | T1 Blood [1, 22]: 1.06 ± 0.03 s | T1 Infarct [1, 22]: 0.85 ± 0.03 s | T1 normal [1, 22]: 0.60 ± 0.01 s | T1 Blood [1, 23]: 1.08 ± 0.03 s | T1 Infarct [1, 23]: 0.87 ± 0.02 s | T1 normal [1, 23]: 0.60 ± 0.01 s | T1 Blood [1, 24]: 1.08 ± 0.03 s | T1 Infarct [1, 24]: 0.88 ± 0.02 s | T1 normal [1, 24]: 0.59 ± 0.01 s | T1 Blood [1, 25]: 1.08 ± 0.03 s | T1 Infarct [1, 25]: 0.89 ± 0.03 s | T1 normal [1, 25]: 0.58 ± 0.01 s | T1 Blood [1, 26]: 1.10 ± 0.03 s | T1 Infarct [1, 26]: 0.91 ± 0.03 s | T1 normal [1, 26]: 0.58 ± 0.01 s | T1 Blood [1, 27]: 0.63 ± 0.03 s | T1 Infarct [1, 27]: 0.46 ± 0.02 s | T1 normal [1, 27]: 0.59 ± 0.01 s | T1 Blood [1, 28]: 0.74 ± 0.03 s | T1 Infarct [1, 28]: 0.47 ± 0.02 s | T1 normal [1, 28]: 0.59 ± 0.01 s | T1 Blood [1, 29]: 0.80 ± 0.02 s | T1 Infarct [1, 29]: 0.51 ± 0.02 s | T1 normal [1, 29]: 0.58 ± 0.01 s | T1 Blood [1, 30]: 0.83 ± 0.02 s | T1 Infarct [1, 30]: 0.55 ± 0.03 s | T1 normal [1, 30]: 0.57 ± 0.01 s | T1 Blood [1, 31]: 0.87 ± 0.02 s | T1 Infarct [1, 31]: 0.58 ± 0.03 s | T1 normal [1, 31]: 0.57 ± 0.01 s | T1 Blood [1, 32]: 0.89 ± 0.02 s | T1 Infarct [1, 32]: 0.60 ± 0.03 s | T1 normal [1, 32]: 0.55 ± 0.01 s | T1 Blood [1, 33]: 0.91 ± 0.03 s | T1 Infarct [1, 33]: 0.61 ± 0.03 s | T1 normal [1, 33]: 0.54 ± 0.01 s | T1 Blood [1, 34]: 0.92 ± 0.03 s | T1 Infarct [1, 34]: 0.63 ± 0.03 s | T1 normal [1, 34]: 0.54 ± 0.01 s | T1 Blood [1, 35]: 0.93 ± 0.03 s | T1 Infarct [1, 35]: 0.65 ± 0.03 s | T1 normal [1, 35]: 0.53 ± 0.01 s | T1 Blood [1, 36]: 0.94 ± 0.03 s | T1 Infarct [1, 36]: 0.66 ± 0.03 s | T1 normal [1, 36]: 0.53 ± 0.01 s | T1 Blood [1, 37]: 0.97 ± 0.02 s | T1 Infarct [1, 37]: 0.69 ± 0.03 s | T1 normal [1, 37]: 0.52 ± 0.01 s | T1 Blood [1, 38]: 0.97 ± 0.03 s | T1 Infarct [1, 38]: 0.69 ± 0.03 s | T1 normal [1, 38]: 0.52 ± 0.01 s | slow E2 component ([1]; blood pool clearance): ~0.01 per min | E1, bi-exponential fit of ΔR1 clearance ([1]; dose 25, ROI blood): 0.21 min⁻¹ | E2, bi-exponential fit of ΔR1 clearance ([1]; dose 25, ROI blood): 0.011 ± 0.001 min⁻¹ | E1, bi-exponential fit of ΔR1 clearance ([1]; dose 25, ROI infarct): 0.15 min⁻¹ | E2, bi-exponential fit of ΔR1 clearance ([1]; dose 25, ROI infarct): 0.015 ± 0.001 min⁻¹ | intercept, linear fit - increase in normal myocardium ([1]; dose 25, ROI normal): 0.187 | slope, linear fit - increase in normal myocardium ([1]; dose 25, ROI normal): 0.0043 min⁻¹ | E1, bi-exponential fit of ΔR1 clearance ([1]; dose 50, ROI blood): 0.15 min⁻¹ | E2, bi-exponential fit of ΔR1 clearance ([1]; dose 50, ROI blood): 0.009 ± 0.001 min⁻¹ | E1, bi-exponential fit of ΔR1 clearance ([1]; dose 50, ROI infarct): 0.058 min⁻¹ | E2, bi-exponential fit of ΔR1 clearance ([1]; dose 50, ROI infarct): 0.005 ± 0.003 min⁻¹ | intercept, linear fit - increase in normal myocardium ([1]; dose 50, ROI normal): 0.294 | slope, linear fit - increase in normal myocardium ([1]; dose 50, ROI normal): 0.0056 min⁻¹ | E1, bi-exponential fit of ΔR1 clearance ([1]; dose 100, ROI blood): 0.18 min⁻¹ | E2, bi-exponential fit of ΔR1 clearance ([1]; dose 100, ROI blood): 0.011 ± 0.001 min⁻¹ | E1, bi-exponential fit of ΔR1 clearance ([1]; dose 100, ROI infarct): 0.11 min⁻¹ | E2, bi-exponential fit of ΔR1 clearance ([1]; dose 100, ROI infarct): 0.010 ± 0.003 min⁻¹ | intercept, linear fit - increase in normal myocardium ([1]; dose 100, ROI normal): 0.523 | slope, linear fit - increase in normal myocardium ([1]; dose 100, ROI normal): 0.0050 min⁻¹ | plasma half life ([1]; equivalent to E2 component): ~1.17 h | clearance or accumulation of test agent ([1]; over 60 minutes after injection, 25, 50 and 100 μmole/kg): cleared from both blood and infarcted myocardium but accumulated in uninfarcted myocardium | SI normal/SI infarct, conventional T1 weighted images ([2]; highest dose): 1.15 | SI normal/SI infarct, STIR sequences ([2]; lowest dose): 0.85-1.3 | SI normal/SI infarct, conventional T1 weighted images ([2]; lowest dose (n=1)): about 1.25
